Read-outs that look alike come from different tables or passages of the source.

In general, mortality refers to the share of the test organisms that died.

For the series, the system named is cat flea (Ctenocephalides felis). The experiment in a line: whole plant or invertebrate. It counts as in vivo. Conditions: for mortality at 1.26 µg/cm2, 1.26 µg/cm2 / mortality at 1.26 µg/cm2: Ctenocephalides felis. The procedure: b) Ctenocephalides felis Adulticide Assay: C. felis Single Dose Screen
Mortality of fleas was the primary endpoint in the assay. Fleas were considered dead if they didn't move or were on their sides and unable to walk or right themselves. […] The concentration chosen (1.26 μg/cm^2) was higher than that known to kill 90% of cat fleas (LC90) using the reference compound, permethrin.
The test species was the cat flea (Ctenocephalides felis). The strain used was obtained from external suppliers as pupae and held in the laboratory under testing conditions until the adults had emerged. Fifteen (15) fleas were used in a minimum of four replicates against a single concentration level (approximately 60 fleas). The insects were selected to be in the adult life stage, aged between 3 and 7 days post emergence.
The compounds to be tested were supplied as solids and were prepared in acetone as described below prior to testing. Samples were stored in a refrigerator (5±1° C.) unless otherwise specified.
During the mortality testing, the temperature was maintained at 25±1° C. Humidity was maintained at 75±5%. The base (area=159 mm^2) of a 100 mL glass Erlenmeyer (conical) flask provided the treatment surface. Flasks were pretreated with Coatasil™ glass treatment to maximise bio-availability of test compounds by preventing them from binding to glass the surface. The base of the 100 mL Erlenmeyer flask was treated with 0.5 mL of test sample in acetone and gently swirled. This volume was sufficient to cover the base of the flask. Flasks were left to dry for 24 hours before flea exposure.
Adult cat fleas were placed into a sorting chamber, which allowed fleas to jump into the Erlenmeyer flasks. Fifteen (15) adult cat fleas were collected in each flask. The top of the flasks were then covered in Parafilm™ and small holes were made to allow gas exchange. A 0.5 mL volume of acetone as a solvent control was applied to the base of an Erlenmeyer flask and the testing proceeded in the same manner described above. Cat fleas in the treatment containers were held under testing conditions for 8, 24 and/or 48 hours. Mortality was recorded at 8, 24, 8 and 24, or 24 and 48 hours. Pooled 8, 24, 8 and 24, and 24 and 48 hour mortality data were converted to percentages and are summarized by Tables 14, 14A and 14B, below.

Where [1] appears, read: 24 h, read-out: C. felis Mortality (%) 24 h, 24 h, Laboratory 1 A data.
Where [2] appears, read: 8 h, read-out: C. felis Mortality (%) 8 h, 8 h, Laboratory 2 B data.
[3] abbreviates: 24 h, read-out: C. felis Mortality (%) 24 h, 24 h, Laboratory 2 B data.
Setting [4] is: 48 h, read-out: C. felis Mortality (%) 48 h, 48 h, Laboratory 2 B data.
The mark [5] stands for this setting: 24 h, read-out: Ctenocephalides felis Mortality (%) 24 h.
Where [6] appears, read: 48 h, read-out: Ctenocephalides felis Mortality (%) 48 h.

Regarding `C/C(=N\Oc1ccc(OC(F)(F)F)cc1)c1cc(Cl)ccc1NS(=O)(=O)C(F)(F)F` [Compound 151], under setting [1], the mortality at 1.26 µg/cm2, 1.26 µg/cm2 is 62%.

As for `CC/C(=N\Oc1ccc(F)c(Cl)c1)c1cc(Cl)ccc1NS(=O)(=O)C(F)(F)F` [Compound 146], under setting [1], the mortality at 1.26 µg/cm2, 1.26 µg/cm2 came to 11%.

Consider `CC/C(=N\OC)c1cc(Cl)ccc1NS(=O)(=O)C(F)(F)F` [Compound 34], for which the mortality at 1.26 µg/cm2, 1.26 µg/cm2 under setting [1] worked out at 100%. Consider `CC/C(=N\OC(CC)c1ccccc1)c1cc(Cl)ccc1NS(=O)(=O)C(F)(F)F` (stereo not drawn) [Compound 256], for which the mortality at 1.26 µg/cm2, 1.26 µg/cm2 amounted to 0% under setting [2] and 84% under setting [3]. With `O=S(=O)(Nc1ccc(Cl)cc1/C(=N/Oc1ccc(Cl)cc1)c1ccccc1)C(F)(F)F` [Compound 164, N-{4-chloro-2-[(4-chlorophenoxyimino)phenylmethyl]phenyl}trifluoromethanesulfonamide], the mortality at 1.26 µg/cm2, 1.26 µg/cm2 under setting [1] worked out at 19%. As to `C/C(=N\OC1CCCCC1)c1ccc(C(F)(F)F)cc1NS(=O)(=O)C(F)(F)F` [Compound 237], the mortality at 1.26 µg/cm2, 1.26 µg/cm2 reads like this: under setting [3], 4%; under setting [4], 36%.

For the molecule `COCCON=C(c1ccccc1)c1cc(Cl)ccc1NS(=O)(=O)C(F)(F)F` (racemic) [Compound 234, N-{4-chloro-[(2-methoxyethoxyimino)phenylmethyl]phenyl}trifluoromethanesulfonamide], the mortality at 1.26 µg/cm2, 1.26 µg/cm2 reads like this: under setting [3], 64%; under setting [4], 100%. Regarding `CC/C(=N\Oc1ccc(OC(F)(F)F)cc1)c1cc(Cl)ccc1NS(=O)(=O)C(F)(F)F` [Compound 152], the mortality at 1.26 µg/cm2, 1.26 µg/cm2 under setting [1] came to 61%. As to `C/C(=N\Oc1ccc(F)c(Cl)c1)c1cc(Cl)ccc1NS(=O)(=O)C(F)(F)F` [Compound 144], the mortality at 1.26 µg/cm2, 1.26 µg/cm2 under setting [1] came to 15%. Take `C/C(=N\OCC#N)c1cc(Cl)ccc1NS(=O)(=O)C(F)(F)F` [Compound 160]: the mortality at 1.26 µg/cm2, 1.26 µg/cm2 under setting [1] is 42%. Consider `C/C(=N\Oc1ccc(F)cc1)c1cc(Cl)ccc1N(COC(=O)C(C)(C)C)S(=O)(=O)C(F)(F)F` [Compound 305], for which the mortality at 1.26 µg/cm2 under setting [5] was found to be 1% and the mortality at 1.26 µg/cm2 under setting [6] stood at 21%. Take `C/C(=N\OCC=C(Cl)Cl)c1ccccc1NS(=O)(=O)C(F)(F)F` [Compound 25]: the mortality at 1.26 µg/cm2, 1.26 µg/cm2 under setting [1] was determined as 100%. With `CCC(CC)O/N=C(\C)c1ccc(C(F)(F)F)cc1NS(=O)(=O)C(F)(F)F` [Compound 236], the mortality at 1.26 µg/cm2, 1.26 µg/cm2 came to 69% under setting [3] and 100% under setting [4]. Consider `CO/N=C(\C)c1cccc(OC)c1NS(=O)(=O)C(F)(F)F` [Compound 40], for which the mortality at 1.26 µg/cm2, 1.26 µg/cm2 under setting [1] came to 45%.

Turning to `CC/C(=N\OC(C)C)c1cc(Cl)ccc1NS(=O)(=O)C(F)(F)F` [Compound 154], the mortality at 1.26 µg/cm2, 1.26 µg/cm2 under setting [1] worked out at 100%. Same read-out and setting: in the case of `CO/N=C(\c1ccccc1)c1ccccc1NS(=O)(=O)C(F)(F)F` [Compound 30] it was 62%.

Take `CO/N=C(\C)c1cc2c(cc1NS(=O)(=O)C(F)(F)F)OCO2` [Compound 32]: the mortality at 1.26 µg/cm2, 1.26 µg/cm2 under setting [1] turned out to be 100%.

As for `CCC/C(=N\OC1CCCCC1)c1cc(Cl)ccc1NS(=O)(=O)C(F)(F)F` [Compound 192], the mortality at 1.26 µg/cm2, 1.26 µg/cm2 is 18% under setting [2] and 43% under setting [3]. As for `O=S(=O)(Nc1ccc(Cl)cc1/C(=N/OC1CCCCC1)c1ccccc1)C(F)(F)F` [Compound 179], under setting [1], the mortality at 1.26 µg/cm2, 1.26 µg/cm2 came to 12%. Regarding `CCO/N=C(\c1ccccc1)c1ccccc1NS(=O)(=O)C(F)(F)F` [Compound 31], under setting [1], the mortality at 1.26 µg/cm2, 1.26 µg/cm2 came to 74%. With `CO/N=C(\c1ccccc1)c1cc(Cl)ccc1NS(=O)(=O)C(F)(F)F` [Compound 233], the “C. felis Mortality (%) 24 h” value (24 h, Laboratory 2 B data) is 15^B %. Moreover, the “C. felis Mortality (%) 48 h” value (48 h, Laboratory 2 B data) was found to be 96%. As to `CSCO/N=C(\C)c1cccc(C)c1NS(=O)(=O)C(F)(F)F` [Compound 54], the mortality at 1.26 µg/cm2, 1.26 µg/cm2 under setting [1] came to 93%.

As to `CCC/C(=N\Oc1ccc(Cl)cc1)c1cc(Cl)ccc1NS(=O)(=O)C(F)(F)F` [Compound 166, N-{4-chloro-2-[1-(4-chlorophenoxyimino)butyl]phenyl}trifluoromethanesulfonamide], under setting [1], the mortality at 1.26 µg/cm2, 1.26 µg/cm2 was 17%. In the case of `CC/C(=N\Oc1ccc(F)c(F)c1)c1cc(Cl)ccc1NS(=O)(=O)C(F)(F)F` [Compound 148], the mortality at 1.26 µg/cm2, 1.26 µg/cm2 under setting [1] amounted to 38%. For `CCOC(=O)N(c1ccc(Cl)cc1/C(CC)=N/OCC1CCCCC1)S(=O)(=O)C(F)(F)F` [Compound 313], the mortality at 1.26 µg/cm2 turned out to be 0% (8 h, single concentration 1.26 μg/cm^2 on treated glass, adult fleas, Laboratory 2 B data, read-out: Ctenocephalides felis Mortality (%) 8 h) and 59% (24 h, single concentration 1.26 μg/cm^2 on treated glass, adult fleas, Laboratory 2 B data, read-out: Ctenocephalides felis Mortality (%) 24 h). In the case of `CO/N=C(\C)c1cc(Cl)ccc1NS(=O)(=O)C(F)(F)F` [Compound 35], under setting [1], the mortality at 1.26 µg/cm2, 1.26 µg/cm2 stood at 100%.

Take `CC(C)(C)/C(=N\Oc1ccc(Cl)cc1)c1cc(Cl)ccc1NS(=O)(=O)C(F)(F)F` [Compound 182, N-{4-chloro-2-[1-(4-chlorophenoxyimino)2,2-dimethylpropyl]phenyl}trifluoromethanesulfonamide]: the mortality at 1.26 µg/cm2, 1.26 µg/cm2 under setting [1] was determined as 28%. On the same count and under the same terms, in the case of `CSCO/N=C(\C)c1ccccc1NS(=O)(=O)C(F)(F)F` [Compound 56] it was 100%; in that of `O=S(=O)(Nc1ccc(Cl)cc1/C(=N/Oc1ccc(Cl)cc1)C1CCCCC1)C(F)(F)F` [Compound 167], 3%. Take `CCOCN(c1ccc(Cl)cc1/C(CC)=N/OCC1CCCCC1)S(=O)(=O)C(F)(F)F` [Compound 301]: the mortality at 1.26 µg/cm2 is, setting by setting: under setting [5], 1%; under setting [6], 19%.

In the case of `CCOCN(c1ccc(Cl)cc1/C(C)=N/Oc1ccc(F)cc1)S(=O)(=O)C(F)(F)F` [Compound 299], the mortality at 1.26 µg/cm2 stood at 0% under setting [5] and 56% under setting [6]. With `C/C(=N\Oc1ccc(F)c(F)c1)c1cc(Cl)ccc1NS(=O)(=O)C(F)(F)F` [Compound 147], the mortality at 1.26 µg/cm2, 1.26 µg/cm2 under setting [1] is 4%. Still for that read-out and setting: the same measure for `O=S(=O)(Nc1ccc(Cl)cc1/C(=N/Oc1ccc(F)cc1)C1CCCCC1)C(F)(F)F` [Compound 169, N-{4-chloro-2-[(4-fluorophenoxyimino)cyclohexylmethyl]phenyl}trifluoromethanesulfonamide]: 9%; for `CCO/N=C(\C)c1ccc(F)cc1NS(=O)(=O)C(F)(F)F` [Compound 51]: 100%. Still for that read-out and setting: the same measure for `CC/C(=N\Oc1ccc(C)cc1)c1cc(Cl)ccc1NS(=O)(=O)C(F)(F)F` [Compound 142]: 72%. On the same count and under the same terms, in the case of `CC(C)O/N=C(\c1ccccc1)c1cc(Cl)ccc1NS(=O)(=O)C(F)(F)F` [Compound 176] it was 52%. With `CC/C(=N\OCc1ccc(Cl)cc1)c1cc(Cl)ccc1N(C)S(=O)(=O)C(F)(F)F` [Compound 297], the mortality at 1.26 µg/cm2 under setting [5] was determined as 1% and the mortality at 1.26 µg/cm2 under setting [6] came out at 28%. With `C/C(=N\Oc1ccccc1C)c1cc(Cl)ccc1NS(=O)(=O)C(F)(F)F` [Compound 149], the mortality at 1.26 µg/cm2, 1.26 µg/cm2 under setting [1] turned out to be 17%. On to `CCO/N=C(\C)c1cc(Br)ccc1NS(=O)(=O)C(F)(F)F` [Compound 53], for which the mortality at 1.26 µg/cm2, 1.26 µg/cm2 under setting [1] came out at 100%. Consider `CC/C(=N\OCC1CCCCC1)c1cc(Cl)ccc1N(C)S(=O)(=O)C(F)(F)F` [Compound 300], for which the mortality at 1.26 µg/cm2 stood at 0% under setting [5] and 9% under setting [6]. `CCCO/N=C(\c1ccccc1)c1cc(Cl)ccc1NS(=O)(=O)C(F)(F)F` [Compound 252]: the “C. felis Mortality (%) 24 h” value (24 h, Laboratory 2 B data) is given as 15^B %. Besides, the “C. felis Mortality (%) 48 h” value (48 h, Laboratory 2 B data) was 100%.

Source of the values: patent publication US7312248B2, “Control of parasites in animals by the use of novel trifluoromethanesulfonanilide oxime ether derivatives” (Schering-Plough Animal Health Corporation, priority 2004, dated 2007).
